The supplement of paper PMC10331698
± gives the standard deviation of the averaged measurements.

Legend:
Assay in all cases: level (log10 ratio to DMSO vehicle control); higher = higher biomarker level / cell amount than vehicle control
Conditions in all cases: in DMSO
Octafluoroadipamide = compound: NC(=O)C(F)(F)C(F)(F)C(F)(F)C(F)(F)C(N)=O [Octafluoroadipamide]
Experimental: (§1)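 BioMAP Diversity Plus panel of 12 human primary cell co-culture systems (3C, 4H, LPS, SAg, BT, BF4T, BE3C, CASM3C, HDF3CGF, KF3CT, MyoF, Mphg). Compounds were added 1 h before stimulation and left for 24 h (MyoF 48 h; BT 72 h for soluble read-outs or 6 d for IgG). Biomarkers were read by ELISA, cytotoxicity by SRB, PBMC viability and proliferation by Alamar Blue. Each well value was divided by the mean of 8 DMSO control wells on the same plate and log10 transformed; duplicate blinded samples were tested at 4 concentrations.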

[1] = compound: FC(F)(F)C(F)(F)C(F)(F)CC1CO1 [1H,1H-Heptafluorobutyl epoxide]
Experimental: as §1

[2] = compound: O=S(=O)(F)C(F)(F)C(F)(F)C(F)(F)C(F)(F)C(F)(F)C(F)(F)C(F)(F)C(F)(F)F [Perfluorooctanesulfonyl fluoride]
Experimental: as §1

Heptafluorobutyl iodide = compound: FC(F)(F)C(F)(F)C(F)(F)CI [Heptafluorobutyl iodide]
Experimental: as §1

[3] = compound: O=S(=O)(Cl)C(F)(F)C(F)(F)C(F)(F)C(F)(F)C(F)(F)C(F)(F)C(F)(F)C(F)(F)F [Perfluoro-1-octanesulfonyl chloride]
Experimental: as §1

[4] = compound: O=C(O)C=CC(F)(C(F)(F)F)C(F)(F)F [3-(Perfluoroisopropyl)-2-propenoic acid]
Experimental: as §1

Row | Test System | level (log10) (Octafluoroadipamide; 6700 nM) | level (log10) (Octafluoroadipamide; 20000 nM) | level (log10) (Octafluoroadipamide; 60000 nM) | level (log10) ([1]; 6700 nM) | level (log10) ([1]; 20000 nM) | level (log10) ([1]; 60000 nM) | level (log10) ([2]; 6700 nM) | level (log10) ([2]; 20000 nM) | level (log10) ([2]; 60000 nM) | level (log10) (Heptafluorobutyl iodide; 6700 nM) | level (log10) (Heptafluorobutyl iodide; 20000 nM) | level (log10) (Heptafluorobutyl iodide; 60000 nM) | level (log10) ([3]; 6700 nM) | level (log10) ([3]; 20000 nM) | level (log10) ([3]; 60000 nM) | level (log10) ([4]; 6700 nM) | level (log10) ([4]; 20000 nM) | level (log10) ([4]; 60000 nM)
1 | 4H:SRB | -0.0065 ± 0.022 | -0.001 ± 0.025 | -0.003 ± 0.013 | 0.008 ± 0.023 | 0.007 ± 0.0057 | -0.02 ± 0.0071 | 0.0015 ± 0.00071 | 0.001 ± 0.0028 | -0.0035 ± 0.0064 | -0.001 ± 0.0028 | 0.0045 ± 0.0064 | 0.011 ± 0.0099 | -0.0105 ± 0.0078 | 0 ± 0.014 | -0.0495 ± 0.061 | 0.001 ± 0.018 | -0.0045 ± 0.029 | 0.004 ± 0.021
2 | KF3CT:SRB | 0.0015 ± 0.00071 | -0.004 ± 0.011 | 0.0125 ± 0.005 | -0.001 ± 0.0085 | 0.001 ± 0.0028 | -0.001 ± 0.0057 | 0.0025 ± 0.0021 | 0.0015 ± 0.005 | 0.0045 ± 0.00071 | -0.002 ± 0.0028 | 0 ± 0.0042 | 0.001 ± 0.016 | -0.0095 ± 0.011 | -0.0315 ± 0.0078 | -0.026 ± 0.0028 | -0.005 | -0.009 ± 0.0014 | 0.002 ± 0.013
3 | HDF3CGF:TIMP-1 | 0.002 ± 0.0071 | 0.0015 ± 0.012 | 0.0035 ± 0.021 | -0.0015 ± 0.067 | 0.015 ± 0.068 | -0.0025 ± 0.071 | -0.0065 ± 0.00071 | 0.002 ± 0.0042 | -0.007 ± 0.0085 | -0.0195 ± 0.037 | -0.019 ± 0.0085 | -0.059 ± 0.025 | 0.016 ± 0.038 | 0.053 ± 0.0057 | 0.139 ± 0.016 | -0.006 ± 0.014 | 0.0105 ± 0.015 | 0.007 ± 0.0057
4 | CASM3C:PAI-I | 0.0005 ± 0.005 | -0.0085 ± 0.012 | 0.0045 ± 0.0092 | -0.0045 ± 0.0092 | 0 ± 0.0057 | 0.005 ± 0.017 | 0.005 ± 0.0071 | -0.005 ± 0.0028 | 0.0045 ± 0.0035 | -0.009 ± 0.0085 | -0.0035 ± 0.005 | -0.011 ± 0.0057 | -0.003 ± 0.0028 | -0.0095 ± 0.00071 | 0.0005 ± 0.011 | 0.006 ± 0.0028 | 0 ± 0.0057 | 0.012 ± 0.0057
5 | lMphg:IL-1alpha | -0.0135 ± 0.016 | -0.044 ± 0.016 | -0.014 ± 0.065 | -0.012 ± 0.0071 | -0.025 ± 0.0071 | -0.002 ± 0.028 | 0.01 ± 0.013 | -0.0025 ± 0.005 | 0.0185 ± 0.019 | 0.029 ± 0.027 | 0.0335 ± 0.03 | 0.0305 ± 0.019 | -0.0225 ± 0.033 | -0.005 ± 0.042 | 0.021 ± 0.088 | -0.0055 ± 0.037 | 0.0095 ± 0.016 | -0.0025 ± 0.012
6 | KF3CT:MMP-9 | -0.0325 ± 0.016 | -0.023 ± 0.0014 | -0.0115 ± 0.03 | -0.0085 ± 0.028 | -0.012 ± 0.0099 | -0.0205 ± 0.013 | -0.012 ± 0.035 | -0.0185 ± 0.032 | -0.0075 ± 0.035 | -0.0195 ± 0.035 | -0.0185 ± 0.033 | -0.005 ± 0.021 | -0.0225 ± 0.028 | -0.0155 ± 0.013 | -0.193 ± 0.026 | -0.0175 ± 0.016 | 0.006 ± 0.0071 | 0.018 ± 0.014
7 | BE3C:MMP-9 | -0.024 ± 0.021 | -0.0235 ± 0.015 | 0.0015 ± 0.029 | -0.0065 ± 0.0078 | 0.015 ± 0.014 | -0.013 ± 0.0014 | -0.025 ± 0.024 | -0.02 ± 0.0042 | -0.026 ± 0.0071 | -0.005 ± 0.0014 | -0.0085 ± 0.0064 | 0.0115 ± 0.015 | -0.018 ± 0.0042 | 0.0275 ± 0.0078 | -0.35 ± 0.037 | -0.018 ± 0.0042 | -0.008 ± 0.0028 | 0.007 ± 0.04
8 | MyoF:TIMP-1 | -0.0325 ± 0.023 | 0.004 ± 0.033 | 0.021 ± 0.021 | -0.025 ± 0.018 | -0.023 ± 0.035 | -0.0125 ± 0.015 | 0.006 ± 0.0099 | 0.0035 ± 0.016 | 0.004 ± 0.0014 | -0.059 ± 0.088 | -0.068 ± 0.068 | -0.0755 ± 0.063 | -0.009 ± 0.044 | 0.0035 ± 0.043 | 0.148 ± 0.031 | -0.0285 ± 0.00071 | -0.0085 ± 0.013 | 0.0535 ± 0.037
9 | HDF3CGF:M-CSF | -0.017 ± 0.054 | -0.0215 ± 0.073 | 0.023 ± 0.0028 | -0.017 ± 0.064 | -0.029 ± 0.044 | -0.0245 ± 0.0092 | 0.0175 ± 0.005 | 0.0015 ± 0.0078 | -0.013 ± 0.058 | -0.0665 ± 0.063 | -0.065 ± 0.023 | -0.07 ± 0.027 | -0.0065 ± 0.016 | 0.0245 ± 0.021 | 0.0195 ± 0.011 | -0.0005 ± 0.0021 | 0.001 ± 0.0028 | 0 ± 0.0057
10 | 4H:CD106/VCAM-1 | 0.0105 ± 0.028 | 0.015 | 0.0235 ± 0.018 | -0.0035 ± 0.033 | 0.0125 ± 0.073 | 0.007 ± 0.078 | 0.0005 ± 0.015 | -0.0105 ± 0.012 | -0.012 ± 0.011 | -0.0215 ± 0.005 | -0.0345 ± 0.026 | 0.0155 ± 0.012 | -0.0025 ± 0.052 | -0.0035 ± 0.023 | -0.0305 ± 0.0064 | 0.0275 ± 0.011 | -0.0175 ± 0.019 | 0.016 ± 0.0014
11 | CASM3C:LDLR | -0.0045 ± 0.0064 | -0.005 ± 0.016 | 0.007 ± 0.0085 | -0.007 ± 0.0028 | -0.015 ± 0.0057 | 0.002 ± 0.0099 | 0.0035 ± 0.0021 | 0.0015 ± 0.012 | 0.0055 ± 0.023 | -0.0015 ± 0.00071 | 0.0025 ± 0.005 | 0.0145 ± 0.015 | -0.0105 ± 0.005 | -0.011 ± 0.017 | 0.0095 ± 0.037 | -0.006 ± 0.017 | -0.0045 ± 0.00071 | 0.008 ± 0.017
12 | KF3CT:CD54/ICAM-1 | -0.0015 ± 0.0021 | -0.003 | 0.0115 ± 0.022 | 0.003 ± 0.013 | -0.012 ± 0.0042 | -0.0105 ± 0.025 | 0.0055 ± 0.029 | 0.003 ± 0.0028 | 0.009 ± 0.0028 | -0.008 ± 0.0071 | -0.004 ± 0.0028 | -0.012 ± 0.0014 | -0.0055 ± 0.0021 | -0.008 ± 0.0028 | 0.0325 ± 0.016 | 0.0075 ± 0.013 | 0.011 ± 0.018 | -0.0025 ± 0.029
13 | 4H:CD62P/P-selectin | -0.013 ± 0.0042 | -0.0165 ± 0.032 | -0.0175 ± 0.016 | -0.015 ± 0.0099 | -0.007 ± 0.0014 | 0.0455 ± 0.046 | 0.061 ± 0.021 | -0.034 ± 0.079 | -0.0275 ± 0.0064 | -0.0515 ± 0.06 | -0.058 ± 0.061 | -0.0135 ± 0.053 | 0.0315 ± 0.012 | 0.0485 ± 0.018 | 0.084 ± 0.031 | -0.001 ± 0.02 | -0.0105 ± 0.012 | 0.023 ± 0.0085
14 | lMphg:CD62E/E-Selectin | 0.0095 ± 0.00071 | 0.002 ± 0.0042 | 0.007 ± 0.016 | -0.001 ± 0.059 | -0.005 ± 0.035 | 0.0525 ± 0.025 | -0.0175 ± 0.013 | -0.0205 ± 0.0035 | -0.028 ± 0.014 | -0.0065 ± 0.011 | -0.0065 ± 0.005 | 0.0085 ± 0.019 | -0.0085 ± 0.0035 | -0.0165 ± 0.037 | 0.073 ± 0.014 | -0.0045 ± 0.012 | -0.002 ± 0.0099 | 0.0205 ± 0.0035
15 | lMphg:M-CSF | -0.017 ± 0.0028 | -0.0065 ± 0.0035 | 0.0045 ± 0.00071 | 0.0065 ± 0.013 | -0.003 ± 0.011 | 0.003 ± 0.04 | -0.006 ± 0.03 | -0.03 ± 0.016 | -0.0335 ± 0.00071 | -0.026 ± 0.014 | -0.0165 ± 0.005 | -0.0245 ± 0.039 | -0.023 ± 0.042 | -0.012 ± 0.031 | 0.0215 ± 0.04 | -0.0105 ± 0.0064 | -0.021 ± 0.014 | -0.015 ± 0.025
16 | 3C:CD54/ICAM-1 | -0.0125 ± 0.0021 | -0.019 ± 0.0071 | -0.006 ± 0.0085 | -0.02 ± 0.0071 | -0.0135 ± 0.005 | -0.003 ± 0.0057 | -0.0025 ± 0.011 | -0.007 ± 0.0042 | 0.005 ± 0.0028 | -0.0075 ± 0.015 | -0.0035 ± 0.0092 | -0.0055 ± 0.005 | -0.027 ± 0.0099 | -0.0215 ± 0.023 | -0.0045 ± 0.0078 | -0.013 ± 0.033 | -0.0185 ± 0.025 | -0.003 ± 0.013
